Experimental data published in US8575156B2, “Cyclic inhibitors of 11β-hydroxysteroid dehydrogenase 1” (Vitae Pharmaceuticals, Inc., priority 2007, dated 2013).
Like-named read-outs stand apart in the source and are kept apart here.

How the values were obtained:
[1] = target: T1, 11β-HSD1 (Homo sapiens, UniProt P28845); conditions: 0.1 µM
[2] = target: T1, 11β-HSD1; experiment: biochemical; conditions: IC50 Range
[3] = Biological Test Example 1, 100 nM compound
[4] = Biological Test Example 1, microsomes from CHO cells overexpressing human 11β-HSD1
[5] = Biological Test Example 1, 100 nM

T1 sequence (P28845 whole entry): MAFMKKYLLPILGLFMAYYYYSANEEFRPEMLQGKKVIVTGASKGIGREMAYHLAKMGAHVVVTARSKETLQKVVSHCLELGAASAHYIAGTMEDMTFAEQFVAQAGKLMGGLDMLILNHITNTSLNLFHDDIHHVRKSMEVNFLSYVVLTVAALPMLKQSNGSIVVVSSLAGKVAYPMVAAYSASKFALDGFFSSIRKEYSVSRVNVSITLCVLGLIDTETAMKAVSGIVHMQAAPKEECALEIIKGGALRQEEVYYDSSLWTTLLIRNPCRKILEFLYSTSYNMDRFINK

Row | SMILES | Average % inhibition at 100 nM [1, 3] [%] | IC50 [2, 4] [nM] | Average % inhibition at 100 nM [1] [%] | IC50 [2] [nM] | Average % inhibition at 100 nM [1, 5] [%]
1 | CC(C)C1(CC(O)CO)CCN([C@@H](C)c2ccc(-c3ccc(F)cc3F)cc2)C(=O)O1 (single isomer, unassigned) [EXAMPLE 223 Isomer 3] | 27.8 | > 100 | – | – | –
2 | CC(C)C1(CC(O)CO)CCN([C@@H](C)c2ccc(-c3ccc(F)cc3F)cc2)C(=O)O1 (single isomer, unassigned) [EXAMPLE 223 Isomer 4] | 52.5 | > 100 | – | – | –
3 | C[C@@H](c1ccc(-c2ccc(F)cc2F)cc1)N1CCC(CCO)(c2cccs2)OC1=O (single isomer, unassigned) [EXAMPLE 233 Isomer 1] | 98.9 | < 100 | – | – | –
4 | C[C@@H](c1ccc(-c2ccc(F)cc2F)cc1)N1CC[C@](CC(O)CN(C)C)(c2ccc(F)cc2)OC1=O (single isomer, unassigned) [EXAMPLE 273 Isomer 1] | 53.6 | < 100 | – | – | –
5 | C[C@@H](c1ccc(-c2ccc(F)cc2F)cc1)N1CC[C@](CC(O)CN(C)C)(c2ccc(F)cc2)OC1=O (single isomer, unassigned) [EXAMPLE 273 Isomer 2] | 17.9 | > 100 | – | – | –
6 | C[C@@H](c1ccc(-c2ccc(F)cc2F)cc1)N1CC[C@](CC(O)CNC(N)=O)(c2ccc(F)cc2)OC1=O (single isomer, unassigned) [EXAMPLE 276 Isomer 1] | 83.1 | < 100 | – | – | –
7 | C[C@@H](c1ccc(-c2ccc(F)cc2F)cc1)N1CC[C@](CC(O)CNC(N)=O)(c2ccc(F)cc2)OC1=O (single isomer, unassigned) [EXAMPLE 276 Isomer 2] | 35.4 | > 100 | – | – | –
8 | C[C@@H](c1ccc(-c2ccc(F)cc2)cc1)N1CC[C@](CC(O)CNS(C)(=O)=O)(c2ccc(F)cc2)OC1=O (single isomer, unassigned) [EXAMPLE 277 Isomer 1] | – | – | 91.1 | < 100 | –
9 | C[C@@H](c1ccc(-c2ccc(F)cc2)cc1)N1CC[C@](CC(O)CN(C)S(C)(=O)=O)(c2ccc(F)cc2)OC1=O (single isomer, unassigned) [EXAMPLE 278 Isomer 1] | 86.6 | < 100 | – | – | –
10 | COc1ccc([C@H](C)N2CCC(CC(O)CO)(c3ccccc3)OC2=O)cc1 (single isomer, unassigned) [EXAMPLE 286 Isomer 1] | 94.1 | < 100 | – | – | –
11 | COc1ccc([C@H](C)N2CCC(CC(O)CO)(c3ccccc3)OC2=O)cc1 (single isomer, unassigned) [EXAMPLE 286 Isomer 2] | 94.5 | < 100 | – | – | –
12 | COc1ccc([C@H](C)N2CCC(CC(O)CO)(c3ccccc3)OC2=O)cc1 (single isomer, unassigned) [EXAMPLE 286 Isomer 3] | 70.5 | < 100 | – | – | –
13 | COc1ccc([C@H](C)N2CCC(CC(O)CO)(c3ccccc3)OC2=O)cc1 (single isomer, unassigned) [EXAMPLE 286 Isomer 4] | 29.3 | > 100 | – | – | –
14 | COc1ccc([C@H](C)N2CCC(CCCO)(C(C)C)OC2=O)cc1 (single isomer, unassigned) [EXAMPLE 332 Isomer 1] | – | < 100 | – | – | 97.8
15 | COc1ccc([C@H](C)N2CCC(CCCO)(C(C)C)OC2=O)cc1 (single isomer, unassigned) [EXAMPLE 332 Isomer 2] | – | > 100 | – | – | 32.2
16 | COc1ccc([C@H](C)N2CCC(CCC(N)=O)(C(C)C)OC2=O)cc1 (single isomer, unassigned) [EXAMPLE 333 Isomer 1] | – | < 100 | – | – | 96.2
17 | COc1ccc([C@H](C)N2CCC(CCC(N)=O)(C(C)C)OC2=O)cc1 (single isomer, unassigned) [EXAMPLE 333 Isomer 2] | – | > 100 | – | – | 9.1
18 | CC(C)C1(CCC(N)=O)CCN([C@@H](C)c2ccc(Cl)cc2)C(=O)O1 (single isomer, unassigned) [EXAMPLE 334 Isomer 1] | – | < 100 | – | – | 96.6
19 | CC(C)C1(CCC(N)=O)CCN([C@@H](C)c2ccc(Cl)cc2)C(=O)O1 (single isomer, unassigned) [EXAMPLE 334 Isomer 2] | – | > 100 | – | – | 31.9
20 | C[C@@H](c1ccc(Br)cc1)N1CCC(CCCO)(C(C)(C)C)OC1=O (single isomer, unassigned) [EXAMPLE 335 Isomer 1] | – | < 100 | – | – | 48.2
21 | C[C@@H](c1ccc(-c2ccc(F)cc2F)cc1)N1CCC(CCO)(C(C)(C)C)OC1=O (single isomer, unassigned) [EXAMPLE 336 Isomer 1] | – | < 100 | – | – | 50.8
22 | C[C@@H](c1ccc(Br)cc1)N1CCC(CCO)(c2ccc(F)cc2F)OC1=O (single isomer, unassigned) [EXAMPLE 365 Isomer 1] | – | < 100 | – | – | 97.5
